From publication PMC5628445, “Four terpene synthases contribute to the generation of chemotypes in tea tree (Melaleuca alternifolia)” (BMC Plant Biology, 2017) come the findings set out here.

Test in all cases: radiometric assay, pentane extraction and scintillation counting; Lineweaver-Burk
Common to all, as to assay type: biochemical, Melaleuca alternifolia

The subject of test [1] is T1, MaTPS-Cin (1,8-cineole synthase); MaTPS-CinA.
T1 construct: vector pASK-IBA7; expressed in E. coli, crude extract
The conditions noted are these: 0.25 mM manganese; 30 °C; 10 min; 1–30 μM 3H-GPP; crude E. coli extract; labelled compound. The text has this: radiometric assay, pentane extraction and scintillation counting; Lineweaver-Burk on MaTPS-Cin (1,8-cineole synthase); MaTPS-CinA

Test [2] has as its system T2, MaTPS-SaH (sabinene hydrate synthase).
T2 construct: vector pASK-IBA7; expressed in E. coli, crude extract
The note with it: 0.25 mM manganese; 30 °C; 15 min; 1–30 μM 3H-GPP; crude E. coli extract; labelled compound. An excerpt:
radiometric assay, pentane extraction and scintillation counting; Lineweaver-Burk on MaTPS-SaH (sabinene hydrate synthase)

In test [3] the test system is T3, MaTPS-Tln (terpinolene synthase).
T3 construct: vector pASK-IBA7; expressed in E. coli, crude extract
The note with it: 0.25 mM manganese; 30 °C; 15 min; 3H-GPP up to 100 μM; crude E. coli extract; labelled compound. An excerpt: radiometric assay, pentane extraction and scintillation counting; Lineweaver-Burk on MaTPS-Tln (terpinolene synthase)

Broadly, the Km is the concentration of substrate that gives half-maximal velocity. In the case of `CC(C)=CCC/C(C)=C/COP(=O)(O)OP(=O)(O)O` [GPP], the Km in test [1] is 31 ± 6.26 µM; in test [2], 11 ± 2 µM; in test [3], 21 ± 3.18 µM.
